From patent publication US20140073651A1, “BENZAMIDE DERIVATIVES AS P2X7 RECEPTOR ANTAGONISTS” (Actelion Pharmaceuticals Ltd., priority 2011, published 2014)

Molecular target: T1, human recombinant P2X7 receptor (Homo sapiens, UniProt Q99572)
T1 construct: expressed in transfected cells
T1 sequence (Q99572 1-595): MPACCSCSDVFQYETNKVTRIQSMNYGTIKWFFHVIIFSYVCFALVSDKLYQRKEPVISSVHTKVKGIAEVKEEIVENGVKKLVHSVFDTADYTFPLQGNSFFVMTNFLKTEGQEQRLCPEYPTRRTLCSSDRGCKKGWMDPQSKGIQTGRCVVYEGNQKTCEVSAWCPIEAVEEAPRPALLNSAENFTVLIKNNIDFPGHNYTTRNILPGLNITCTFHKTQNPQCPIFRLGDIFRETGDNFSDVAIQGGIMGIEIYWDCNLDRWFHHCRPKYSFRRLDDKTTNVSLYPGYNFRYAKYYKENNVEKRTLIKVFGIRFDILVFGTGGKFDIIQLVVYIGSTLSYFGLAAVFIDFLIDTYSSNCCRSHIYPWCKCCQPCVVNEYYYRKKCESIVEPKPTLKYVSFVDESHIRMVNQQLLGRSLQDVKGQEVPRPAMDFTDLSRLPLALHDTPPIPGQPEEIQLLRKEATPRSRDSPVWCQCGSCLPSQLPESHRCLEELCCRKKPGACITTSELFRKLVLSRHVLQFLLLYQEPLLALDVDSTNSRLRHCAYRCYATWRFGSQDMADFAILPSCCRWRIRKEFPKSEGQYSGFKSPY
Assay: YO-PRO assay (YO-PRO-1 uptake) in HEK cells stably expressing P2X7
Assay type: cell-based
Details: HEK-293 cells expressing human recombinant P2X7 receptor; ATP 250 μM, 90 minutes; YO-PRO-1 fluorescence (FLIPR tetra); read-out: IC50 (antagonistic activity with respect to the P2X7 receptor)
Outline: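 Antagonist serially diluted (duplicates) on P2X7-expressing HEK cells in buffer with 0.5 μM YO-PRO-1; dye uptake followed on FLIPR Tetra over four time points. IC50 from maximum fluorescence intensity versus compound concentration.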

Row | IC50 [nM] | SMILES
1 | 702 | Cc1ccc(N(C)c2ccnc(Cl)n2)cc1C(=O)NCC1(O)CCCCC1 [Example 153, 5-[(2-Chloro-pyrimidin-4-yl)-methyl-amino]-N-(1-hydroxy-cyclohexylmethyl)-2-methyl-benzamide]
2 | 629 | COc1nccc(N(C)c2ccc(C)c(C(=O)NCC3(O)CCCCC3)c2)n1 [Example 154, N-(1-Hydroxy-cyclohexylmethyl)-5-[(2-methoxy-pyrimidin-4-yl)-methyl-amino]-2-methyl-benzamide]
3 | 199 | Cc1ccc(N(C)c2cc[nH]c(=O)n2)cc1C(=O)NCC1(O)CCCCC1 [Example 155, N-(1-Hydroxy-cyclohexylmethyl)-2-methyl-5-[methyl-(2-oxo-1,2-dihydro-pyrimidin-4-yl)-amino]-benzamide]
